Assay results from article PMC6364417, “Kinase inhibitor library screening identifies synergistic drug combinations effective in sensitive and resistant melanoma cells” (Journal of Experimental & Clinical Cancer Research : CR, 2019).

Assays:
Experiment in all cases: Kinase inhibitor library screening, PrestoBlue cell viability, 1 or 10 μM, 72 h
501Mel cells (parental) = conditions: for cell viability (kinase inhibitor library screening): 501Mel Parental
How it was run: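 Kinase inhibitors added at two fixed concentrations; 72 h exposure; PrestoBlue readout; % viability vs untreated; n ≥ 2 per line.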

[1] = tested on: 501Mel-GP cells (Dabrafenib-resistant); conditions: for cell viability (kinase inhibitor library screening): 501Mel GP
[2] = tested on: 501Mel-XP cells (Vemurafenib-resistant); conditions: for cell viability (kinase inhibitor library screening): 501Mel XP
A375 cells (parental) = conditions: for cell viability (kinase inhibitor library screening): A375 Parental
[3] = tested on: A375-GP cells (Dabrafenib-resistant); conditions: for cell viability (kinase inhibitor library screening): A375 GP
[4] = tested on: A375-XP cells (Vemurafenib-resistant); conditions: for cell viability (kinase inhibitor library screening): A375 XP
IGR37 cells (parental) = conditions: for cell viability (kinase inhibitor library screening): IGR37 Parental
[5] = tested on: IGR37-GP cells (Dabrafenib-resistant); conditions: for cell viability (kinase inhibitor library screening): IGR37 GP
[6] = tested on: IGR37-XP cells (Vemurafenib-resistant); conditions: for cell viability (kinase inhibitor library screening): IGR37 XP

Structure (SMILES): O=c1cc(-c2cccc3c2Sc2ccccc2S3)oc(N2CCOCC2)c1 [KU-55933]
- cell viability (kinase inhibitor library screening) (501Mel cells (parental); 10μΜ, 72 h): 90.2%
- cell viability (kinase inhibitor library screening) ([1]; 1μΜ, 72 h): 98.9%
- cell viability (kinase inhibitor library screening) ([1]; 10μΜ, 72 h): 76.6%
- cell viability (kinase inhibitor library screening) ([2]; 1μΜ, 72 h): 87.7%
- cell viability (kinase inhibitor library screening) ([2]; 10μΜ, 72 h): 65.9%
- cell viability (kinase inhibitor library screening) (A375 cells (parental); 10μΜ, 72 h): 90.0%
- cell viability (kinase inhibitor library screening) (A375 cells (parental); 1μΜ, 72 h): 105.8%
- cell viability (kinase inhibitor library screening) ([3]; 1μΜ, 72 h): 92.9%
- cell viability (kinase inhibitor library screening) ([3]; 10μΜ, 72 h): 89.1%
- cell viability (kinase inhibitor library screening) ([4]; 1μΜ, 72 h): 104.1%
- cell viability (kinase inhibitor library screening) ([4]; 10μΜ, 72 h): 92.4%
- cell viability (kinase inhibitor library screening) (IGR37 cells (parental); 1μΜ, 72 h): 113.8%
- cell viability (kinase inhibitor library screening) (IGR37 cells (parental); 10μΜ, 72 h): 80.4%
- cell viability (kinase inhibitor library screening) ([5]; 1μΜ, 72 h): 98.2%
- cell viability (kinase inhibitor library screening) ([5]; 10μΜ, 72 h): 67.8%
- cell viability (kinase inhibitor library screening) ([6]; 1μΜ, 72 h): 105.2%
- cell viability (kinase inhibitor library screening) ([6]; 10μΜ, 72 h): 34.9%

Structure (SMILES): C[C@@H]1CN(CC(=O)Nc2ccc3c(c2)Cc2cccc(-c4cc(=O)cc(N5CCOCC5)o4)c2S3)C[C@H](C)O1 [KU-60019]
- cell viability (kinase inhibitor library screening) (501Mel cells (parental); 1μΜ, 72 h): 90.0%
- cell viability (kinase inhibitor library screening) (501Mel cells (parental); 10μΜ, 72 h): 71.5%
- cell viability (kinase inhibitor library screening) ([1]; 1μΜ, 72 h): 103.1%
- cell viability (kinase inhibitor library screening) ([1]; 10μΜ, 72 h): 54.1%
- cell viability (kinase inhibitor library screening) ([2]; 1μΜ, 72 h): 91.4%
- cell viability (kinase inhibitor library screening) ([2]; 10μΜ, 72 h): 36.5%
- cell viability (kinase inhibitor library screening) (A375 cells (parental); 10μΜ, 72 h): 78.4%
- cell viability (kinase inhibitor library screening) ([3]; 1μΜ, 72 h): 100.5%
- cell viability (kinase inhibitor library screening) ([3]; 10μΜ, 72 h): 68.6%
- cell viability (kinase inhibitor library screening) ([4]; 10μΜ, 72 h): 74.4%
- cell viability (kinase inhibitor library screening) (IGR37 cells (parental); 10μΜ, 72 h): 97.6%
- cell viability (kinase inhibitor library screening) ([5]; 1μΜ, 72 h): 92.9%
- cell viability (kinase inhibitor library screening) ([6]; 10μΜ, 72 h): 34.1%

Structure (SMILES): O=C(c1ccc(/C=C/c2n[nH]c3ccccc23)cc1)N1CCNCC1 [KW 2449]
- viability at 1 µM (501Mel cells (parental); Homo sapiens, 72 h, read-out: cell viability, 501Mel Parental, 1μΜ): 97.3%
- viability at 10 µM (501Mel cells (parental); Homo sapiens, 72 h, read-out: cell viability, 501Mel Parental, 10μΜ): 57.7%
- viability at 1 µM ([1]; Homo sapiens, 72 h, read-out: cell viability, 501Mel GP, 1μΜ): 103%
- viability at 10 µM ([1]; Homo sapiens, 72 h, read-out: cell viability, 501Mel GP, 10μΜ): 66.3%
- viability at 1 µM ([2]; Homo sapiens, 72 h, read-out: cell viability, 501Mel XP, 1μΜ): 96.9%
- viability at 10 µM ([2]; Homo sapiens, 72 h, read-out: cell viability, 501Mel XP, 10μΜ): 58%
- viability at 1 µM (A375 cells (parental); Homo sapiens, A-375, 72 h, read-out: cell viability, A375 Parental, 1μΜ): 87.5%
- viability at 10 µM (A375 cells (parental); Homo sapiens, A-375, 72 h, read-out: cell viability, A375 Parental, 10μΜ): 30.6%
- viability at 1 µM ([3]; Homo sapiens, A-375, 72 h, read-out: cell viability, A375 GP, 1μΜ): 93.7%
- viability at 10 µM ([3]; Homo sapiens, A-375, 72 h, read-out: cell viability, A375 GP, 10μΜ): 28%
- viability at 1 µM ([4]; Homo sapiens, A-375, 72 h, read-out: cell viability, A375 XP, 1μΜ): 94.8%
- viability at 10 µM ([4]; Homo sapiens, A-375, 72 h, read-out: cell viability, A375 XP, 10μΜ): 40.9%
- viability at 1 µM (IGR37 cells (parental); Homo sapiens, IGR-37, 72 h, read-out: cell viability, IGR37 Parental, 1μΜ): 99.6%
- viability at 10 µM (IGR37 cells (parental); Homo sapiens, IGR-37, 72 h, read-out: cell viability, IGR37 Parental, 10μΜ): 71.9%
- viability at 1 µM ([5]; Homo sapiens, IGR-37, 72 h, read-out: cell viability, IGR37 GP, 1μΜ): 96.4%
- viability at 10 µM ([5]; Homo sapiens, IGR-37, 72 h, read-out: cell viability, IGR37 GP, 10μΜ): 45.2%
- viability at 1 µM ([6]; Homo sapiens, IGR-37, 72 h, read-out: cell viability, IGR37 XP, 1μΜ): 104%
- viability at 10 µM ([6]; Homo sapiens, IGR-37, 72 h, read-out: cell viability, IGR37 XP, 10μΜ): 18%

Structure (SMILES): COc1cc2nccc(Oc3ccc(NC(=O)Nc4ccc(F)cc4F)c(F)c3)c2cc1OC [Ki8751]
- cell viability (kinase inhibitor library screening) (501Mel cells (parental); 1μΜ, in %): 96.7
- cell viability (kinase inhibitor library screening) (501Mel cells (parental); 10μΜ, in %): 85.3
- cell viability (kinase inhibitor library screening) ([1]; 1μΜ, in %): 97.3
- cell viability (kinase inhibitor library screening) ([1]; 10μΜ, in %): 80.7
- cell viability (kinase inhibitor library screening) ([2]; 1μΜ, in %): 89.9
- cell viability (kinase inhibitor library screening) ([2]; 10μΜ, in %): 74.9
- cell viability (kinase inhibitor library screening) (A375 cells (parental); 1μΜ, in %): 96.1
- cell viability (kinase inhibitor library screening) (A375 cells (parental); 10μΜ, in %): 75.1
- cell viability (kinase inhibitor library screening) ([3]; 1μΜ, in %): 94.2
- cell viability (kinase inhibitor library screening) ([3]; 10μΜ, in %): 77.5
- cell viability (kinase inhibitor library screening) ([4]; 10μΜ, in %): 97.9
- cell viability (kinase inhibitor library screening) (IGR37 cells (parental); 1μΜ, in %): 93.0
- cell viability (kinase inhibitor library screening) (IGR37 cells (parental); 10μΜ, in %): 84.9
- cell viability (kinase inhibitor library screening) ([5]; 1μΜ, in %): 88.2
- cell viability (kinase inhibitor library screening) ([5]; 10μΜ, in %): 88.8
- cell viability (kinase inhibitor library screening) ([6]; 1μΜ, in %): 88.9
- cell viability (kinase inhibitor library screening) ([6]; 10μΜ, in %): 70.9
